From US20240270810A1, “PREPARATION AND APPLICATION OF POLYPEPTIDE” (GUANGDONG RAYNOVENT BIOTECH CO., LTD., priority 2021, published 2024)

Legend:
in vitro = in vitro ADME; settings: human, plasma
Description: • 1. Before the experiment, the clotted frozen plasma was thawed in a water bath at 37° C. The resulting plasma was centrifuged at 4000 rpm for 5 min. If there is blood clot, remove the clot and adjust the pH to 7.4±0.1. • 2. The test compound solution was prepared by diluting the compounds with DMSO to prepare a solution of 100 μM. • 3. 98 μL of plasma, as a blank control, was added with 2 μL of the test compound solution (100 μM) to get a mixed solution with a final concentration of 2 μM, which was incubated in a water bath at 37° C. • 4. 100 μL of H3PO4 solution and 800 μL of stop solution (a 100% solution of 200 ng/mL tolbutamide and 200 ng/ml labetalol in methanol) were respectively added at each time point (0, 10, 30, 60, and 120 min) to precipitate protein, which was then mixed thoroughly. • 5. The samples were centrifuged at 4000 rpm for 20 min, and 100 μL of supernatant was taken from each well for LC-MS/MS analysis.

GIPR = target: T1, GIPR (Homo sapiens, UniProt P48546); test: In vitro GIPR agonistic activity test (cAMP kit); assay type: cell-based; settings: CHO host cells
T1 construct: host or cells: CHO
T1 sequence (P48546 22-466): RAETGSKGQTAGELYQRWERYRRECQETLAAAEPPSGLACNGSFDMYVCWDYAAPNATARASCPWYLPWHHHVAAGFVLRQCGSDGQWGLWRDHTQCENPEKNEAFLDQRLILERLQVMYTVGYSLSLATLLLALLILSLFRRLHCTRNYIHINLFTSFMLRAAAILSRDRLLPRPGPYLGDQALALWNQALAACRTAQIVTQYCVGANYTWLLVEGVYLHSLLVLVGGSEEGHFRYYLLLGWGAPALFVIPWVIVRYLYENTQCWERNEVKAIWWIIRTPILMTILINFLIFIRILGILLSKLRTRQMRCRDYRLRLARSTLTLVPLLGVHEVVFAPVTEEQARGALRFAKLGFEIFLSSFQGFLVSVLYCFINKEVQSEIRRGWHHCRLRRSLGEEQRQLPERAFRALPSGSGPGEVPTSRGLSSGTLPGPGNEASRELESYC
Description: The cell lines were constructed by Wuxi […] (Shanghai) Co., Ltd. See details in Table 1 below. […] The test compounds were diluted at a 4-fold dilution factor in 10 points, starting from an initial concentration of 30 μM. The dilution was carried out by Bravo. • 1) 100 nL of compounds were transferred to an OptiPlate-384 plate by Echo. • 2) The OptiPlate-384 plate was centrifuged at 1000 rpm for 5 s. • 1) A GLP-1R/GIPR cell cryovial was placed in warm water at 37° C. for rapid thawing. • 2) The cell suspension was transferred into a 15 mL Transfer centrifugal tube and rinsed with 10 mL of HBSS gently. • 3) The centrifugal tube was centrifuged at 1000 rpm at room temperature for 1 min. • 4) The supernatant was discarded. • 5) The bottom cells were gently dispersed, then gently rinsed with 10 mL of HBSS, the centrifugal tube was centrifuged to settle the cells, and finally the cells were resuspended in an experimental buffer. • 6) Cell density and viability were measured by Vi-cell. • 7) The GLP-1R/GIPR cells were diluted with the experimental buffer to a concentration of 2.0*10^5/mL. • 8) […] of the diluted cell suspension was transferred into the OptiPlate-384 plate. • 9) Incubation was performed at room temperature for 30 min. • 1) 10 μL of 800 nM gradient diluted cAMP standard was added into the empty wells of the OptiPlate-384 plate. • 2) 10 μL of cAMP assay reagent was added. • 3) The OptiPlate-384 plate was covered with TopSeal-A film and incubated at room temperature for 60 min. The TopSeal-A film was removed, and readout was performed on En Vision.

mouse plasma albumin = assay type: in vitro ADME
Description: (§1) To study the binding of the test compounds to human/mouse plasma albumin. • 1. Blank matrix preparation: On the day of the experiment, the plasma was thawed in cold water and centrifuged at 3220 rpm for 5 min to remove all the blood clots. The pH of the resulting plasma was measured and adjusted to 7.4±0.1 with 1% of phosphoric acid or 1 N of sodium hydroxide as desired. • 2. Dilution of the test compounds: the test compounds were dissolved in dimethyl sulfoxide (DMSO) to prepare stock solutions of 10 mM and 2 mM, respectively. 2 μL of the stock solution (2 mM) was diluted with 98 μL of DMSO to obtain a working solution of 40 μM. 10 μL of the stock solution was diluted with 240 μL of DMSO to obtain a working solution of control compounds of 400 μM. A working solution of the compounds (5 μL) was mixed evenly with a blank matrix (995 μL) at a ratio of 1:200 to prepare a loading matrix. • 3. Analytical procedure • 3.1 Equal amounts of 30 μL of the loading matrix (n=2) were transferred into a sample collection plate to prepare Time 0 (T0) samples for residue determination. The samples were immediately matched with corresponding blank buffer to a final volume of 60 μL, with a volume ratio of plasma (the loading matrix) to buffer being 1:1 in each well. Then, into the T0 samples of the test compounds were respectively added 60 μL of 4% H3PO4 in H2O and 480 μL of stop solution containing internal standard. They were then stored at 2° C. to 8° C. together with other samples for further treatment. • 3.2 The remaining plasma samples were pre-incubated in a carbon dioxide incubator at 37±1° C. for 30 min. Protein-free samples (F samples) were prepared. Matrix-loaded samples (230 μL) were all transferred into polycarbonate tubes (n=2) and ultracentrifuged at 37° C. and 155,000×g (35000 rpm) for 4 h. • 3.3 To prepare T samples (test samples), an additional matrix-containing sample was transferred into a separate 96-well plate (sample incubation plate) and incubated at 37° C. for 4 h. • 3.4 At the end of centrifugation, 30 μL of protein-free samples (F samples) and 30 μL of T samples were taken from the second layer (beneath the upper layer) of the supernatant and transferred into a new sample collection plate. Each sample was mixed with corresponding blank buffer or matrix to a final volume of 60 μL, and the blank matrix:buffer volume ratio is 1:1. Into all the samples were added 60 μL of 4% H3PO4 solution in water and 480 μL of stop solution containing internal standard. The mixture was centrifuged at 4000 rpm for 20 min. 100 μL of supernatant for each sample was taken for LC-MS/MS analysis.

human plasma albumin = assay type: in vitro ADME
Description: as §1

| half-life (in vitro) | EC50 (GIPR; with 1% HSA) | EC50 (GIPR; without 1% HSA) | PPB % unbound (H/M), M (mouse plasma albumin) | PPB % unbound (H/M), H (human plasma albumin) | half-life at 2 μM (in vitro; pH 7.4) | Structure (SMILES) |
| --- | --- | --- | --- | --- | --- | --- |
| > 4.82 h | 19.3 nM | 0.16 nM | NA/NA | NA/NA |  | CC[C@H](C)[C@H](NC(=O)[C@H](CC(C)C)NC(=O)[C@H](Cc1c[nH]c2ccccc12)NC(=O)[C@H](CCC(=O)O)NC(=O)[C@@H](NC(=O)[C@H](Cc1ccccc1)NC(=O)[C@H](C)NC(=O)[C@@H]1CCCCNC(=O)CN(C(=O)COCCOCCNC(=O)COCCOCCNC(=O)CC[C@H](NC(=O)CCCCCCCCCCCCCCCCCCC(=O)O)C(=O)O)CC(=O)NCCCC[C@H](NC(=O)[C@H](CCCCN)NC(=O)[C@H](CC(=O)O)NC(=O)[C@H](CC(C)C)NC(=O)C(C)(C)NC(=O)[C@@H](NC(=O)[C@H](CO)NC(=O)[C@H](Cc2ccc(O)cc2)NC(=O)[C@H](CC(=O)O)NC(=O)[C@H](CO)NC(=O)[C@@H](NC(=O)[C@H](Cc2ccccc2)NC(=O)[C@@H](NC(=O)CNC(=O)[C@H](CCC(=O)O)NC(=O)C(C)(C)NC(=O)[C@@H](N)Cc2ccc(O)cc2)[C@@H](C)O)[C@@H](C)O)[C@@H](C)CC)C(=O)N[C@@H](C)C(=O)N[C@@H](CCC(N)=O)C(=O)N1)C(C)C)C(=O)N[C@@H](C)C(=O)NCC(=O)NCC(=O)N1CCC[C@H]1C(=O)N[C@@H](CO)C(=O)N[C@@H](CO)C(=O)NCC(=O)N[C@@H](C)C(=O)N1CCC[C@H]1C(=O)N1CCC[C@H]1C(=O)N1CCC[C@H]1C(=O)N[C@@H](CO)C(N)=O [WX-005] |
|  |  | 0.074 nM | NA/NA | NA/NA | > 4.82 h | CC[C@H](C)[C@H](NC(=O)[C@H](CC(C)C)NC(=O)[C@H](Cc1c[nH]c2ccccc12)NC(=O)[C@H](CCC(=O)O)NC(=O)[C@@H](NC(=O)[C@H](Cc1ccccc1)NC(=O)[C@H](CCC(=O)O)NC(=O)[C@@H]1CCCCNC(=O)CN(C(=O)COCCOCCNC(=O)COCCOCCNC(=O)CC[C@H](NC(=O)CCCCCCCCCCCCCCCCCCC(=O)O)C(=O)O)CC(=O)NCCCC[C@H](NC(=O)[C@H](CCCCN)NC(=O)[C@H](CC(=O)O)NC(=O)[C@H](CC(C)C)NC(=O)C(C)(C)NC(=O)[C@@H](NC(=O)[C@H](CO)NC(=O)[C@H](Cc2ccc(O)cc2)NC(=O)[C@H](CC(=O)O)NC(=O)[C@H](CO)NC(=O)[C@@H](NC(=O)[C@H](Cc2ccccc2)NC(=O)[C@@H](NC(=O)CNC(=O)[C@H](CCC(=O)O)NC(=O)C(C)(C)NC(=O)[C@@H](N)Cc2ccc(O)cc2)[C@@H](C)O)[C@@H](C)O)[C@@H](C)CC)C(=O)N[C@@H](C)C(=O)N[C@@H](CCC(N)=O)C(=O)N1)C(C)C)C(=O)N[C@@H](C)C(=O)NCC(=O)NCC(=O)N1CCC[C@H]1C(=O)N[C@@H](CO)C(=O)N[C@@H](CO)C(=O)NCC(=O)N[C@@H](C)C(=O)N1CCC[C@H]1C(=O)N1CCC[C@H]1C(=O)N1CCC[C@H]1C(=O)N[C@@H](CO)C(N)=O [WX-009] |
